This note sets out measurements from US20250214951A1, “3-PHENYLISOXAZOLE DERIVATIVE, AND PHARMACEUTICAL COMPOSITION FOR PREVENTING OR TREATING EYE DISEASE, CONTAINING SAME AS ACTIVE INGREDIENT” (VASTHERA CO., LTD., priority 2022, published 2025).

What all share (assay type): cell-based, human
The test system of one data set is A2E-BDP in ARPE-19 cells. Nature of the data set: Removal of A2E-BDP by concentration, fluorescence and phase contrast microscopy. As for the experimental part:
ARPE-19 cell line was dispensed into a 24-well plate at a concentration of 4×10^4 cells/well and cultured for 24 hours. In order to induce A2E-BDP accumulation in ARPE-19 cell line, the cells were treated with […] of 10 μM for 24 hours. The A2E-BDP-containing ARPE-19 cells were treated with compound 17 (10, 25, 50 μM) for 24 hours. The level of A2E-BDP in each cell was measured as a fluorescence image at 510 nm using a Nikon Eclipse Ti—U fluorescence microscope (Tokyo, Japan). In addition, the change in cell number according to compound treatment was observed using a general phase contrast microscope, and the results are shown in FIG. 1. Meanwhile, lutein was used as a control substance.

In data set [1] the test system is IL-1β, IL-6 and CXCL8 mRNA. The experiment in a line: Inhibition of blue light-induced inflammatory gene expression (real-time PCR). As to conditions: A2E and blue light; P<0.05; FIG. 5. As for the experimental part:
ARPE-19 cell lines were seeded in 6-well plates at a concentration of 2×10^4 cells/well and cultured for 24 hours. The process of accumulating A2E in ARPE-19 cell lines, irradiating with blue light, and treating with example 17 compound of the present invention was performed in the same manner as in Experimental Example 5. After 24 hours of irradiating with blue light, total RNA was isolated from ARPE-19 cells using Trizol reagent (Invitrogen), and total RNA was quantified using Nanodrop (Nanodrop, Thermo Scientific). Thereafter, cDNA was synthesized using […] of total RNA, and the cDNA was amplified using the primers described in Table 5 below as a template and a real-time genetic cycler LC480 (Roche) (PCR conditions: denaturation −95° C., 10 seconds; primer binding −60° C., 10 seconds; and extension −72° C., 10 seconds).
At this time, the PCR results for 18S were used as a control to correct the relative amount of genes measured in the ARPE-19 cell line, and the experimental results are shown in FIG. 5.
(Quantitative PCR measures a nucleic acid by following its amplification.)

The subject of a further data set is LC3-II. Nature of the data set: Autophagy activation in A2E-accumulated ARPE-19 (LC3-II Western). To be noted: 25, 50, 100 μM, 12 h; FIG. 8. How it is done:
A2E is known to inhibit intracellular autophagy. Therefore, it was measured whether example 17 compound of the present invention also increases autophagy in ARPE-19 cell lines accumulating A2E.
Specifically, ARPE-19 cell lines were dispensed into 6-well plates at a concentration of 1×10^5 cells/well and cultured for 24 hours. The cells were treated with A2E at a concentration of […] for 24 hours. Thereafter, the cells were treated with example 17 compound of the present invention at concentrations of 25, 50, and 100 μM for 12 hours each. Thereafter, cell lysate preparation and measurement of LC3-II by Western immunoblotting were performed in the same manner as in Experimental Example 7, and the results are shown in FIG. 8.

The next data set relates to p62 protein. The experiment in a line: Restoration of autophagy inhibited by A2E and blue light (p62 Western). As to conditions: ARPE-19, A2E accumulation and blue light; FIG. 10. The text has this: Therefore, it was confirmed whether the compound of the present invention can restore autophagy inhibited by A2E and blue light.
During the autophagosome formation process, p62 specifically binds to a substance to be degraded and simultaneously binds to LC3 protein to form an autophagosome. When autophagy is inhibited, aggregates composed of p62 and ubiquitinated proteins are formed and p62 accumulates in the cell. Therefore, by measuring the change in the level of intracellular p62, the improvement effect of the compound of the present invention on autophagy inhibited by A2E and blue light can be evaluated, and the experiment was conducted as follows.
Specifically, ARPE-19 cells were seeded into 6-well plates at a concentration of 2×10^4 cells/well and cultured for 24 hours. To induce A2E accumulation in the ARPE-19 cell line, the cells were treated with A2E three times at a concentration of 25 μM at 48-hour intervals. 24 hours after the final A2E treatment, the cells were treated with example 17 compound twice at 24-hour intervals each. […] The amount of intracellular p62 was measured by Western immunoblotting using an anti-p62 antibody (Santa Cruz, TX, USA). The amount of intracellular β-actin was measured in the same manner using anti-β-actin antibody (Santa Cruz) and used as a control.

As for `C=CCOCc1cc(-c2cc(CC=C)ccc2OC)no1` [Example 17, 3-(5-allyl-2-methoxyphenyl)-5-((allyloxy)methyl)isoxazole], the “cytotoxicity against ARPE-19 cells (cell number, phase contrast microscope)” value in the data set on A2E-BDP in ARPE-19 cells (10, 25, 50 μM, 24 h) is recorded as “no cytotoxicity”. The “A2E-BDP fluorescence intensity (fluorescence microscope)” value in the data set on A2E-BDP in ARPE-19 cells (ARPE-19 with A2E-BDP, 10, 25, 50 μM, 24 h, FIG. 1) is “a decrease in fluorescence intensity was observed in a concentration-dependent manner”. Further, in the data set on A2E-BDP in ARPE-19 cells (FIG. 1), the “A2E-BDP removal ability compared with lutein” value is given as “better A2E-BDP removal ability than lutein”. In addition, the “expression of mRNA of inflammation-related genes (IL-1β, IL-6, and CXCL8)” value in data set [1] was “statistically significant reduction”. Also, in the data set on LC3-II, the “LC3-II level in A2E-accumulated ARPE-19” value is reported as “an increase in LC3-II”. Also, in the data set on p62 protein, the p62 protein concentration entry is on record as “decreased in a concentration-dependent manner”.
